Laboratory results: US20110110916A1, “METHODS FOR TREATING AND/OR PREVENTING CARDIOMYOPATHIES BY ERK OR JNK INHIBITION” (priority 2008, published 2011)

How the values were obtained:
Lmna^H222P/H222P mice [1] = assay: Deaths during the 4-week treatment protocol; format: in vivo, mouse; conditions: 4-week treatment from 16 weeks; PD98059 n=22, SP600125 n=29; DMSO 6 of n=28
Text: We assigned male Lmna^H222P/H222P mice 16 weeks of age to 3 different treatment arms (placebo DMSO, n=28; MEK1/2 inhibitor PD98059, n=22; JNK inhibitor SP600125, n=29) and examined parameters of cardiac structure and function at 20 weeks of age, after 4 weeks treatment. […] Lmna^H222P/H222P mice also have depressed cardiac contractility, with fractional shortening (FS) decreased by 20%-40% compared to Lmna^+/+ mice (13,15). Myocardial fibrosis occurs in Lmna^H222P/H222P mice at 16 weeks of age (16). At 20 weeks, LVEDD and LVESD increase further in Lmna^H222P/H222P mice and cardiac contractility also progressively deteriorates (16). During the 4-week treatment protocol, 6 mice in the DMSO group, 3 in the PD98059 group and 3 in the SP600125 group died prior to reaching 20 weeks of age for evaluation.

Lmna^H222P/H222P mice [2] = assay: Pilot study: echocardiography at 24 weeks of age, treatment from 19 to 24 weeks; format: in vivo, mouse; conditions: 3 mg/kg/day from 19 to 24 weeks, pilot study n=3
Procedure: SP600125, an anthrapyrazolone inhibitor of JNK, and PD98059, a 2′-amino-3′-methoxyflavone MAPK/ERK kinase (MEK) ½ inhibitor, (Calbiochem) were dissolved in dimethyl sulfoxide (DMSO) (Sigma) at a concentration of 1 mg/ml and were delivered to a dose of 3 mg/kg/day for 5 days a week. The placebo control consisted of DMSO alone and was delivered in the same volume. Placebo and inhibitors were administered by intraperitoneal injection using a 27⅝-gauge syringe. Treatments were started when mice were 16 weeks of age and continued until 20 weeks of age or when the mice were 19 weeks and continued until 24 weeks of age.
At 20 weeks or 24 weeks of age, mice were anesthetized with 1.5% isoflurane in O2 and placed on a heating pad (37° C.). Cardiac function was assessed by echocardiography with a Visualsonics Vevo 770 ultrasound with a 30 MHz transducer applied to the chest wall. Cardiac ventricular dimensions and fractional shortening (FS) were measured in 2D mode and M-mode three times in a modified short axis view for the number of animals indicated. A “blinded” echocardiographer (J.S.), unaware of the genotype or treatment, performed the examinations.
In a pilot study, we assessed treatment of Lmna^H222P/H222P mice with PD98059 and SP600125 at a more advanced stage of disease and for a longer time. […]

[3] = test system: hearts from Lmna^H222P/H222P mice; assay: Histopathological analysis of hearts (left ventricle, cardiomyocyte nuclear length); format: in vivo, mouse; conditions: for mean lengths of nuclei in cardiomyocytes compared to the DMSO-treated group: 20 weeks of age, treated 16 to 20 weeks
Procedure: Mice were sacrificed at 16 weeks of age and freshly removed hearts were fixed in 4% formaldehyde for 48 hours, embedded in paraffin, sectioned at […] and stained with hematoxylin and eosin and Masson's trichrome. Representative stained sections were photographed using a Microphot SA (Nikon) light microscope attached to a Spot RT Slide camera (Diagnostic Instruments). Images were processed using Adobe Photoshop 6.0 (Adobe Systems). Length of cardiomyocytes was measured using Scion Image software (Scion Corporation). Data were reported as means±standard deviations and are compared with respective controls using a two-tailed t test.
Mice were sacrificed at 20 weeks of age, and freshly removed hearts were fixed in 4% formaldehyde for 48 hours, embedded in paraffin, sectioned at 5 μm and stained with hematoxylin, eosin and Gomori's trichrome and Syrius Red. Representative stained sections were photographed using a Microphot SA (Nikon) light microscope attached to a Spot RT Slide camera (Diagnostic Instruments) with a 10× objective. Images were processed using Adobe Photoshop CS (Adobe Systems).

JNK = assay: Immunoblot of phosphorylated JNK versus total JNK in hearts of treated mice; format: in vivo, mouse; conditions: for phosphorylation of JNK / JNK signaling in heart: treated 8 to 16 weeks of age, 3 mg/kg/day i.p.
Procedure: Hearts were excised from mice at 16-weeks of age and were homogenized in RIPA extraction buffer (Cell Signalling) containing protease inhibitors (25 […]). Protein samples were subjected to SDS-PAGE, transferred to nitrocellulose membranes and blotted with primary antibodies against ERK1/2 (Santa-Cruz), phosphorylated ERK1/2 (Cell Signaling), JNK (Santa-Cruz), natriuretic peptide precursor A (Santa-Cruz), phosphorylated JNK (Cell Signaling), and Gapdh (Ambion). Secondary antibodies were HRP-conjugated (Amersham). Recognized proteins were visualized by enhanced chemiluminescence (ECL, Amersham). The signal generated using an antibody against Gapdh was used as internal controls to normalize the amounts of protein between immunoblots.
Proteins were loaded on 10% SDS gels and electrotransferred on a […] pore size nitrocellulose membrane (Invitrogen). We used antibodies directed against phosphorylated ERK1/2 (Cell Signaling, 1:1,000), total ERK1/2 (Santa Cruz, 1:2,000), phosphorylated JNK (Cell Signaling, 1:1,000) and total JNK (Santa Cruz, 1:200). The secondary antibodies were coupled to horseradish-peroxydase (Amersham). Recognized proteins were visualized by enhanced chemiluminescence (SuperSignal® West Pico chemiluminescent substrate, Thermo Scientific).

cyclooxygenase-2 = conditions: reference 137; cited from earlier work
[4] = 3 mg/kg/day from 16 to 20 weeks of age

Compound	mice that died prior to reaching 20 weeks of age (Lmna^H222P/H222P mice [1])	LV dilatation and FS compared to DMSO-treated mice (Lmna^H222P/H222P mice [2])	mean lengths of nuclei in cardiomyocytes compared to the DMSO-treated group [3]	phosphorylation of JNK in hearts (JNK; [4])	phosphorylation of JNK in hearts (JNK; pilot study, 24 week-old mice treated from 19 weeks)	phosphorylation of JNK / JNK signaling in heart (JNK)	activity against cyclooxygenase-2 (cyclooxygenase-2)	abnormal elongation of cardiomyocyte nuclei ([3]; 16 week-old mice, treated 8 to 16 weeks)
O=C1c2ccccc2-c2n[nH]c3cccc1c23 [SP600125, anthra[1,9-cd]pyrazol-6(2H)-one]	3	trend toward decreased LV dilatation and increased FS	significantly shorter	partially blocked	partially blocked	blocked		
COc1cccc(-c2cc(=O)c3ccccc3o2)c1N [PD98059, 2-(2-amino-3-methoxyphenyl)-4H-1-benzopyran-4-one]	3	decreased LV dilatation and increased FS	significantly shorter	not significantly inhibited		did not observe inhibition	has activity	prevented
